In US10624947B2, “Bactericidal peptides and uses thereof” (INDIANA UNIVERSITY RESEARCH AND TECHNOLOGY CORPORATION, priority 2016, dated 2020):
≈ marks a conversion by molar mass, not a printed value. Entries after “also recorded” stand apart in the source; their conditions may differ. Each block holds one compound with its values, some of them ahead of it. Square brackets hold non-standard residues; d marks the D form. Peptide text beside a SMILES is read from it. AEEA = NCCOCCOCC(=O)O

Key:
[1] = Toxicity of peptides injected intraperitoneally; type: in vivo, mice; conditions: intraperitoneal, 10 or 20 μM
Method: FIGS. 23A, B show the efficacy and toxicity of modified peptides in mice. […] The survival of mice injected intraperitoneally with iron dextran at 48 h after intraperitoneal injection of 10 or 20 μM of the modified peptides. […] Vibrio vulnificus (V. v.) strain CMCP6 was injected at 1×10^6 CFU. […] All mice receive iron dextran by intraperitoneal injection. Where indicated, 1 h later 10^6 bacterial CFU in 100 μL was injected into the peritoneum (opposite side). 1 h later, 100 μL of the peptide at the indicated concentration was administered on the same side as the bacterial injection.
Since B22a was effective in preventing infection of V. vulnificus in a surgical incision model, we tested it for efficacy for systemic infection in a mouse septicemia model (1). Groups of mice (strain CD-1) were first injected with […], followed 1 h later with an intraperitoneal injection of 1×10e6 colony forming units of V. vulnificus strain […]. The B22a was then injected intraperitoneally 1 h later and morbidity was monitored hourly for two days.
PB22N and other modified peptides were tested in a septicemic mouse model. V. vulnificus is a highly-pathogenic bacterium, causing septicemia and high mortality. In mice injected intraperitoneally with V. vulnificus, the majority of the mice had to be euthanized within 24 h due to severe symptoms associated with septicemia (FIG. 23B). […] PB22N was effective in preventing mice from succumbing to systemic infection by the highly virulent V. vulnificus.

Klebsiella pneumoniae = assay: microbe, parasite or virus in culture

Structure (SMILES): CC[C@H](C)[C@H](NC(=O)[C@@H](NC(=O)[C@@H]1CCCN1C(=O)[C@H](CO)NC(=O)[C@H](CC(C)C)NC(=O)[C@H](CCCCN)NC(=O)[C@H](CCCCN)NC(=O)[C@H](Cc1ccccc1)NC(=O)[C@H](CC(C)C)NC(=O)[C@H](CCCCN)NC(=O)[C@H](CCCCN)NC(=O)[C@H](CC(C)C)NC(=O)[C@H](CCCCN)NC(=O)[C@H](CCCCN)NC(=O)[C@H](CCCNC(=N)N)NC(=O)[C@H](Cc1ccccc1)NC(C)=O)C(C)C)C(=O)N1CCC[C@H]1C(=O)N[C@@H](CC(C)C)C(=O)N[C@@H](CC(C)C)C(=O)N[C@@H](CCCCN)C(=O)N[C@@H](CC(C)C)C(=O)NCC(=O)NCCOCCOCC(=O)O [AB22P] (Ac-FRKKLKKLFKKLSPVIPLLKLG[AEEA]-OH)
Toxicity signs in mice injected with peptide [1]: no obvious symptoms were observed; also recorded: no obvious effects on mice behavior or appearance

MIC (Klebsiella pneumoniae; Table 8, clinical isolate 88 (NDM1+)): 16 µg/mL (≈ 53.4 µM)
MIC (Klebsiella pneumoniae; Table 8, clinical isolate 92): > 64 µg/mL
MIC (Klebsiella pneumoniae; Table 8, clinical isolate 109): 16 µg/mL (≈ 53.4 µM)
MIC (Klebsiella pneumoniae; Table 8, clinical isolate 113): 16 µg/mL (≈ 53.4 µM)
MIC (Klebsiella pneumoniae; Table 8, clinical isolate 116): 8 µg/mL (≈ 26.7 µM)
MIC (Klebsiella pneumoniae; Table 8, clinical isolate 118): 32 µg/mL (≈ 107 µM)
MIC (Klebsiella pneumoniae; Table 8, clinical isolate 136): 8 µg/mL (≈ 26.7 µM)
MIC (Klebsiella pneumoniae; Table 8, clinical isolate 256): ≥ 16 µg/mL
MIC (Klebsiella pneumoniae; Table 8, clinical isolate 262 (NDM1+)): > 16 µg/mL
MIC (Klebsiella pneumoniae; Table 8, clinical isolate 265): 48 µg/mL (≈ 160 µM)
MIC (Klebsiella pneumoniae; Table 8, clinical isolate 280): ≥ 16 µg/mL
MIC (Klebsiella pneumoniae; Table 8, clinical isolate 281): 4 µg/mL (≈ 13.4 µM)
MIC (Klebsiella pneumoniae; Table 8, clinical isolate 284): 8 µg/mL (≈ 26.7 µM)
MIC (Klebsiella pneumoniae; Table 8, clinical isolate 286): ≥ 16 µg/mL
MIC (Klebsiella pneumoniae; Table 8, clinical isolate 330): 4 µg/mL (≈ 13.4 µM)
MIC (Klebsiella pneumoniae; Table 8, clinical isolate 361): > 16 µg/mL
MIC (Klebsiella pneumoniae; Table 11, clinical isolate 88 (NDM1+)): 16 µg/mL (≈ 53.4 µM)
MIC (Klebsiella pneumoniae; Table 11, clinical isolate 92): > 64 µg/mL
MIC (Klebsiella pneumoniae; Table 11, clinical isolate 116): 8 µg/mL (≈ 26.7 µM)
MIC (Klebsiella pneumoniae; Table 11, clinical isolate 118): 32 µg/mL (≈ 107 µM)
MIC (Klebsiella pneumoniae; Table 11, clinical isolate 136): 8 µg/mL (≈ 26.7 µM)
MIC (Klebsiella pneumoniae; Table 11, clinical isolate 256): ≥ 16 µg/mL
MIC (Klebsiella pneumoniae; Table 11, clinical isolate 262 (NDM1+)): > 16 µg/mL
MIC (Klebsiella pneumoniae; Table 11, clinical isolate 265): 48 µg/mL (≈ 160 µM)
MIC (Klebsiella pneumoniae; Table 11, clinical isolate 280): ≥ 16 µg/mL
MIC (Klebsiella pneumoniae; Table 11, clinical isolate 281): 4 µg/mL (≈ 13.4 µM)
MIC (Klebsiella pneumoniae; Table 11, clinical isolate 284): 8 µg/mL (≈ 26.7 µM)
MIC (Klebsiella pneumoniae; Table 11, clinical isolate 286): ≥ 16 µg/mL
MIC (Klebsiella pneumoniae; Table 11, clinical isolate 330): 4 µg/mL (≈ 13.4 µM)
MIC (Klebsiella pneumoniae; Table 11, clinical isolate 361): > 16 µg/mL
MIC (Klebsiella pneumoniae; Table 11, clinical isolate 10916): > 16 µg/mL
MIC (Klebsiella pneumoniae; Table 11, clinical isolate 110113): 16 µg/mL (≈ 53.4 µM)
Structure (SMILES): C[C@@H](O)[C@H]1C(=O)N2C(C(=O)O)=C(SCCN=CN)C[C@H]12 [Imipenem]
